These results are taken from article PMC10179503, “Using Machine Learning and Molecular Docking to Leverage Urease Inhibition Data for Virtual Screening” (International Journal of Molecular Sciences, 2023).

Molecules are shown by their SMILES.

The target in the first experiment is T1, jack bean urease (Canavalia ensiformis, UniProt P07374).
T1 construct: nickel metalloenzyme; full length 840 residues, native oligomer a hexamer (known biology)
T1 sequence (P07374 whole entry): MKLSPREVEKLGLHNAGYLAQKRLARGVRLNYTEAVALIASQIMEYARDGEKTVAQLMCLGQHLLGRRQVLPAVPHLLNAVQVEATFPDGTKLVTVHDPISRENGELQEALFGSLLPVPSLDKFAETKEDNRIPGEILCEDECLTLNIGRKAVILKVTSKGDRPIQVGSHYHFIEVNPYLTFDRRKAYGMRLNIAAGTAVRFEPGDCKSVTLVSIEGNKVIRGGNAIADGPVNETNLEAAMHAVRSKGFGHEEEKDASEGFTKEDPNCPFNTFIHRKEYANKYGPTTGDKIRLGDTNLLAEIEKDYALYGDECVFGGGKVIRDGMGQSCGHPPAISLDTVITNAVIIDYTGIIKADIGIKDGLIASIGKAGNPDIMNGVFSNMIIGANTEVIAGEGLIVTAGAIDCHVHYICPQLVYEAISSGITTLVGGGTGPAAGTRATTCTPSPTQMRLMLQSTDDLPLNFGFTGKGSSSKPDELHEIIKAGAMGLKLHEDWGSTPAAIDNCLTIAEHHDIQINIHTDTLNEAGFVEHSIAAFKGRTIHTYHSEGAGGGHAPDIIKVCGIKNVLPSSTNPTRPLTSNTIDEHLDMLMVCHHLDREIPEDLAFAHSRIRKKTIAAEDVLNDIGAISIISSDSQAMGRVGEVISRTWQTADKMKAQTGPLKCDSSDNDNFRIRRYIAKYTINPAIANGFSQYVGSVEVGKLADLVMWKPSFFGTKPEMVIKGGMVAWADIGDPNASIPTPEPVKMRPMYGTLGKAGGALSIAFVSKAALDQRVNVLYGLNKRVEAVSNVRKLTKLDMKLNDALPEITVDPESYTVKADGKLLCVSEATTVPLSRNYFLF
The experiment is described as follows: indophenol (Weatherburn) ammonia release, […] nm. Type of experiment: biochemical. The following applies: read-out: % at 1 mM or IC50 ± SEM.
In general, IC50 refers to the concentration that gives 50% inhibition. Take `NC(N)=S` [Thiourea, reference compound]: the IC50 turned out to be 144 ± 5.08 µM.
Same read-out and setting: the same measure for `[O-][S+](NOCc1ccccc1)c1ccccc1` (stereo not drawn) [compound 3, 3]: 6.15 ± 0.99 µM; for `O=S(=O)(NOCc1ccccc1)c1ccccc1` [compound 2, 2]: 100 ± 10.2 µM.
Same read-out and setting: the same measure for `NOC(=O)c1ccccc1` [compound 5, 5]: 155 ± 2.02 µM.

In the next experiment the target is T1, jack bean urease. The experiment is described as follows: indophenol (Weatherburn) ammonia release, […] nm. The following applies: urea (20 mM stock, 45 μL), PBS, 30 °C, 10 min. Type of experiment: biochemical.
As to `Cc1ccc(S(=O)(=O)NOCc2ccccc2)cc1` [compound 1, 1], the “% at 1 mM or IC50 ± SEM (μM)” value came out at 43.85%.
On the same count and under the same terms, the same measure for `O=C(ON[S+]([O-])c1ccccc1)c1ccccc1` (stereo not drawn) [compound 4, 4]: 0%.
